Assay results from patent publication US20130045952A1, “ABA Receptor Agonists for Increased Plant Stress Resistance” (Van Andel Research Institute, priority 2011, published 2013).

Key:
Assay type in all cases: biochemical
His6-PYR1 / biotin-PP2C = target: T1, His6-PYR1 / biotin-PP2C (Arabidopsis thaliana, UniProt O49686); experiment: AlphaScreen luminescence proximity assay, PYR1-PP2C interaction; details: 100 nM His6-PYR1, 100 nM biotin-PP2C, 100 μM agonist; normalized against a pyrabactin control
T1 construct: made in house; host or cells: E. coli is stated for PYL1, PYL2 and the PP2Cs, not expressly for PYR1
T1 sequence (O49686 1-191): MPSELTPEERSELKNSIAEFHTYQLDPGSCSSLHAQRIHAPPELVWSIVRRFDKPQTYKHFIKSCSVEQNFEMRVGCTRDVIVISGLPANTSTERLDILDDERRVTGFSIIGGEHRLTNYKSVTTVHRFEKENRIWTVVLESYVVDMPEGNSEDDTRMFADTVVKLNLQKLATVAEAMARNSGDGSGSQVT
Procedure: (§1) Mutant proteins were expressed as H6GST-fusion proteins and purified by glutathione sepharose chromatography. Protein-protein interactions were determined by luminescence proximity AlphaScreen assay. Biotinylated PP2C proteins for the luminescence proximity assay were generated by in vivo biotinylation of avitag-PP2C fusion proteins. PP2C phosphatase activity was measured by phosphate release from a SnRK2.6 phosphoprotein.
(§2) Interactions between PYR/PYL and PP2Cs were assessed by luminescence-proximity AlphaScreen technology (Perkin Elmer). Briefly, biotinylated PP2Cs were attached to streptavidin-coated donor beads, and H6-tagged PYR/PYL receptors were attached to nickel-chelated acceptor beads. The donor and acceptor beads were brought into proximity by the interactions between PYR/PYLs and PP2Cs, which were measured with and without ligands. When excited by a laser beam of 680 nm, the donor beam emits singlet oxygen that activates thioxene derivatives in the acceptor beads, which releases photons of 520-620 nm as the binding signal. The experiments were conducted with 100 nM of PP2Cs and PYR/PYL proteins in the presence of 5 ug/ml donor and acceptor beads in a buffer of 50 mM MOPS, pH7.4, 50 mM NaF, […], and 0.1 mg/ml bovine serum albumin. The results were based on an average of three experiments with standard errors typically less than 10% of the measurements.
(§3) Values were determined in different experiments and normalized against a pyrabactin control. Blank spaces mean no experimental data is available. Key (photon counts (binding signal units) in Alphascreen luminescence proximity assay): “+++ is >75,000; ++ is 25,000−75,000; + is <25,000.

His6-PYL2 / biotin-PP2C = target: T2, His6-PYL2 / biotin-PP2C (Arabidopsis thaliana, UniProt O80992); experiment: AlphaScreen luminescence proximity assay, PYL2-PP2C interaction; details: 100 nM His6-PYL2, 100 nM biotin-PP2C, 100 μM agonist; normalized against a pyrabactin control
T2 construct: PYL2 (residues 14-188), and HAB1 (residues 172-511) were prepared as recombinant proteins in E. coli; made in house; host or cells: E. coli
T2 sequence (O80992 14-188): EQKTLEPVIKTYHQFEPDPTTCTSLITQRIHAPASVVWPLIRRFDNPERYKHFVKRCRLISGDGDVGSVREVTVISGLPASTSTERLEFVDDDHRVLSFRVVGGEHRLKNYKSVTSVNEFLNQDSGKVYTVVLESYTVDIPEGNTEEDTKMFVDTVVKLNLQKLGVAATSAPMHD
Procedure: as §1, §2, §3

His6-PYL3 / biotin-PP2C = target: T3, His6-PYL3 / biotin-PP2C (Arabidopsis thaliana, UniProt Q9SSM7); experiment: AlphaScreen luminescence proximity assay, PYL3-PP2C interaction; details: 100 nM His6-PYL3, 100 nM biotin-PP2C, 100 μM agonist; normalized against a pyrabactin control
T3 construct: made in house; host or cells: not expressly stated for PYL3
T3 sequence (Q9SSM7 1-209): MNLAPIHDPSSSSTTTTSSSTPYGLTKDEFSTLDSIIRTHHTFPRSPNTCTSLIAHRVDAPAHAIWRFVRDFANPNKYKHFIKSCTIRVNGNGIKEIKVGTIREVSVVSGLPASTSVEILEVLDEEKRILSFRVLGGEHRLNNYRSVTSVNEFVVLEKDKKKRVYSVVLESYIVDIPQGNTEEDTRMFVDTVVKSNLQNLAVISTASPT
Procedure: as §1, §2, §3

His6-PYR1 / biotin-ABI1 = target: T4, His6-PYR1 / biotin-ABI1 (Arabidopsis thaliana, UniProt O49686); experiment: AlphaScreen dose response, PYR1-ABI1 interaction; details: 100 nM His6-PYR1, 100 nM biotin-PP2C, 0-100 μM agonist; from dose response curves
T4 construct: made in house; host or cells: E. coli (stated for the PP2Cs; not expressly for PYR1)
T4 sequence (O49686 1-191): T1 sequence (O49686 1-191)
T4 sequence (P49597 117-434 partner limits assumed): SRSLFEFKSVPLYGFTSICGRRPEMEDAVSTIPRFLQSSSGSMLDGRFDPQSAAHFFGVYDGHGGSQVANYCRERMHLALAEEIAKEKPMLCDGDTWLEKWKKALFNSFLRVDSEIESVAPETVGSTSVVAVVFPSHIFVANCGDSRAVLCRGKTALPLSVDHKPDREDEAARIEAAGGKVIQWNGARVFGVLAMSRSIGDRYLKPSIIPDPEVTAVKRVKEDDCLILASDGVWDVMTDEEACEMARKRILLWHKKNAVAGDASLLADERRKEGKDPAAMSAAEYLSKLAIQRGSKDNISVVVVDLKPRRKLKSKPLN
Procedure: as §2
(§4) The results shown in Table 5b were calculated from the dose response curves of the dependence of the interaction between 100 nM His6-PYR1 and 100 nM biotin-PP2C on the presence of 0-100 μM agonists determined by AlphaScreen luminescence proximity assay. Key (EC50 in μM): ++++=<5.0 μM; +++=5-10 μM; ++=10-20 μM; and +=>20-60 μM.

His6-PYR1 / biotin-ABI2 = target: T5, His6-PYR1 / biotin-ABI2 (Arabidopsis thaliana, UniProt O49686); experiment: AlphaScreen dose response, PYR1-ABI2 interaction; details: 100 nM His6-PYR1, 100 nM biotin-PP2C, 0-100 μM agonist; from dose response curves
T5 construct: made in house; host or cells: E. coli (stated for the PP2Cs; not expressly for PYR1)
T5 sequence (O49686 1-191): T1 sequence (O49686 1-191)
T5 sequence (O04719 101-423 partner limits assumed): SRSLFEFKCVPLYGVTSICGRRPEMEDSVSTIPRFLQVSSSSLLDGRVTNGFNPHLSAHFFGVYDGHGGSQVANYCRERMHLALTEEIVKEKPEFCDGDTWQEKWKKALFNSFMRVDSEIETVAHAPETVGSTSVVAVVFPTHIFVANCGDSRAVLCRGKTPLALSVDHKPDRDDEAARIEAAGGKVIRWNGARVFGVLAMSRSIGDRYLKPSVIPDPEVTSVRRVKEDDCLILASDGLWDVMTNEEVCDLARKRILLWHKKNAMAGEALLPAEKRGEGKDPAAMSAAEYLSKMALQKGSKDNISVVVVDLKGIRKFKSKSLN
Procedure: as §2, §4

His6-PYR1 / biotin-HAB1 = target: T6, His6-PYR1 / biotin-HAB1 (Arabidopsis thaliana, UniProt O49686); experiment: AlphaScreen dose response, PYR1-HAB1 interaction; details: 100 nM His6-PYR1, 100 nM biotin-PP2C, 0-100 μM agonist; from dose response curves
T6 construct: made in house; host or cells: E. coli (stated for the PP2Cs; not expressly for PYR1)
T6 sequence (O49686 1-191): T1 sequence (O49686 1-191)
T6 sequence (Q9CAJ0 172-511 partner limits assumed): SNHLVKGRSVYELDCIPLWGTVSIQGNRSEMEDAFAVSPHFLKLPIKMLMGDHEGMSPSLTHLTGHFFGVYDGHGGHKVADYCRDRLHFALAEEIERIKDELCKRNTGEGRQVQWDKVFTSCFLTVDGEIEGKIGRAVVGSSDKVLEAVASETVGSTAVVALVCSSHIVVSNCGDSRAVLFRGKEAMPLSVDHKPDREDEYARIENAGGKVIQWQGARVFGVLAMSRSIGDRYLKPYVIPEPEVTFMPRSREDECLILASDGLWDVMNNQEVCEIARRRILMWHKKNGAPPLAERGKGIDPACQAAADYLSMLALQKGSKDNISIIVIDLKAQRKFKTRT
Procedure: as §2, §4

ABI1 = target: T7, ABI1 (Arabidopsis thaliana, UniProt O49686+P49597); experiment: PP2C phosphatase activity assay, ABI1; details: 200 nM PP2C; SnRK2.6 phosphopeptide substrate; None = 100
T7 construct: ABI1 (residues 117-434) and ABI2 (residues 101-423) were expressed as H6Sumo fusion proteins; H6Sumo (N); made in house; host or cells: E. coli BL21
T7 sequence (P49597 117-434 limits assumed): T4 sequence (P49597 117-434 partner limits assumed)
T7 sequence (O49686 1-191): T1 sequence (O49686 1-191)
Procedure: as §1
(§5) PP2Cs and PYR/PYL proteins were pre-incubated at the indicated concentrations in 50 mM imidazole, pH 7.2, 5 mM MgCl2, 0.1% β-mercaptoethanol and 0.5 mg/ml BSA for 30 min at room temperature. Reactions were started by addition of 100 μM of a phosphopeptide corresponding to amino acids 170-180 of SnRK2.6 (HSQPK^pSTVGTP). This peptide is phosphorylated at a single residue corresponding to Ser175 in SnRK2.6, whose phosphorylation is required for SnRK2.6 kinase activity^32. Phosphate release from ^pS175 from the phosphopeptide was determined by colorimetric assay (BioVision).

ABI2 = target: T8, ABI2 (Arabidopsis thaliana, UniProt O04719+O49686); experiment: PP2C phosphatase activity assay, ABI2; details: 200 nM PP2C; SnRK2.6 phosphopeptide substrate; None = 100
T8 construct: ABI1 (residues 117-434) and ABI2 (residues 101-423) were expressed as H6Sumo fusion proteins; H6Sumo (N); made in house; host or cells: E. coli BL21
T8 sequence (O04719 101-423 limits assumed): T5 sequence (O04719 101-423 partner limits assumed)
T8 sequence (O49686 1-191): T1 sequence (O49686 1-191)
Procedure: as §1, §5

HAB1 = target: T9, HAB1 (Arabidopsis thaliana, UniProt O49686+Q9CAJ0); experiment: PP2C phosphatase activity assay, HAB1; details: 200 nM PP2C; SnRK2.6 phosphopeptide substrate; None = 100
T9 construct: HAB1 (residues 172-511) were prepared as recombinant proteins in E. coli; H6GST or H6Sumo; made in house; host or cells: E. coli
T9 sequence (Q9CAJ0 172-511 limits assumed): T6 sequence (Q9CAJ0 172-511 partner limits assumed)
T9 sequence (O49686 1-191): T1 sequence (O49686 1-191)
Procedure: as §1, §5

His6-PYL1 / biotin-PP2C = target: T10, His6-PYL1 / biotin-PP2C (Arabidopsis thaliana, UniProt Q8VZS8); experiment: AlphaScreen luminescence proximity assay, PYL1-PP2C interaction; details: 100 nM His6-PYL1, 100 nM biotin-PP2C, 100 μM agonist; normalized against a pyrabactin control
T10 construct: PYL1 (residues 36-211), PYL2 (residues 14-188), and HAB1 (residues 172-511) were prepared as recombinant proteins in E. coli; made in house; host or cells: E. coli
T10 sequence (Q8VZS8 36-211): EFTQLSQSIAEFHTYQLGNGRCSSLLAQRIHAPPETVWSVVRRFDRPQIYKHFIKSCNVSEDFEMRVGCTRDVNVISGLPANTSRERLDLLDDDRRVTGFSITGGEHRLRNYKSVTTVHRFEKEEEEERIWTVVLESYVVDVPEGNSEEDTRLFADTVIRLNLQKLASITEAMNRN
Procedure: as §1, §2, §3

Row | Structure (SMILES) | Stimulation of the interaction between PYR1 and PP2C (binding signal) (His6-PYR1 / biotin-PP2C) | Stimulation of the interaction between PYL2 and PP2C (binding signal) (His6-PYL2 / biotin-PP2C) | Stimulation of the interaction between PYL3 and PP2C (binding signal) (His6-PYL3 / biotin-PP2C) | EC50 (His6-PYR1 / biotin-ABI1) [µM] | EC50 (His6-PYR1 / biotin-ABI2) [µM] | EC50 (His6-PYR1 / biotin-HAB1) [µM] | % Phosphatase Activity ABI1 (ABI1) [%] | % Phosphatase Activity ABI2 (ABI2) [%] | % Phosphatase Activity HAB1 (HAB1) [%] | Stimulation of the interaction between PYL1 and PP2C (binding signal) (His6-PYL1 / biotin-PP2C)
1 | CSCCCC(NS(=O)(=O)c1ccc(Br)c2ccccc12)C(=O)O (stereo not shown) [Compound 3] | ++ (++ is 25,000−75,000) | + (+ is <25,000) | +++ (+++ is >75,000) | < 5 | < 5 | < 5 | 7.7 ± 4.3 | 7.0 ± 0.3 | 17.5 ± 0.6 | 
2 | O=S(=O)(NCc1ccccn1)c1ccc2ccccc2c1 [Compound 4] | +++ (+++ is >75,000) |  | + (+ is <25,000) |  |  |  |  |  |  | 
3 | CCOC(=O)C1OC(NC(=O)CSc2nnc(-c3ccccc3OCC)o2)C(C#N)C1C (stereo not shown) [Compound 5] | + (+ is <25,000) | ++ (++ is 25,000−75,000) | + (+ is <25,000) |  |  |  |  |  |  | + (+ is <25,000)
4 | O=C(CNS(=O)(=O)c1ccccc1)OCc1ccc(Cl)c(Cl)c1 [Compound 6] | ++ (++ is 25,000−75,000) | + (+ is <25,000) | ++ (++ is 25,000−75,000) |  |  |  |  |  |  | 
5 | CC(C)c1ccccc1OCCNS(=O)(=O)c1ccc2ccccc2c1 [Compound 7] | ++ (++ is 25,000−75,000) | ++ (++ is 25,000−75,000) | + (+ is <25,000) |  |  |  |  |  |  | ++ (++ is 25,000−75,000)
6 | O=S(=O)(NCCOc1ccccc1)c1ccc2ccccc2c1 [Compound 8] | + (+ is <25,000) | + (+ is <25,000) | ++ (++ is 25,000−75,000) |  |  |  |  |  |  | 
